Experimental data published in publication PMC10287695, “Non-covalent inhibitors of thioredoxin glutathione reductase with schistosomicidal activity in vivo” (Nature Communications, 2023).
Values joined by “and” are separate entries in the source; they are usually repeats but may differ in a detail not shown here. Equal values may be shown once.

Legend:
TGR [1] = molecular target: T1, TGR (Schistosoma mansoni, UniProt Q962Y6); assay: Time dependence of inhibition; type: biochemical; set-up: avg % inhib, 0.5 hr / avg % inhib, 1 hr / avg % inhib, 2 hr / avg % inhib, 3 hr / avg % inhib, 6 hr / avg % inhib, 24 hr: tested at 50 µM; settings: panel d Time Dependence
T1 construct: made in house
T1 sequence (Q962Y6 1-598): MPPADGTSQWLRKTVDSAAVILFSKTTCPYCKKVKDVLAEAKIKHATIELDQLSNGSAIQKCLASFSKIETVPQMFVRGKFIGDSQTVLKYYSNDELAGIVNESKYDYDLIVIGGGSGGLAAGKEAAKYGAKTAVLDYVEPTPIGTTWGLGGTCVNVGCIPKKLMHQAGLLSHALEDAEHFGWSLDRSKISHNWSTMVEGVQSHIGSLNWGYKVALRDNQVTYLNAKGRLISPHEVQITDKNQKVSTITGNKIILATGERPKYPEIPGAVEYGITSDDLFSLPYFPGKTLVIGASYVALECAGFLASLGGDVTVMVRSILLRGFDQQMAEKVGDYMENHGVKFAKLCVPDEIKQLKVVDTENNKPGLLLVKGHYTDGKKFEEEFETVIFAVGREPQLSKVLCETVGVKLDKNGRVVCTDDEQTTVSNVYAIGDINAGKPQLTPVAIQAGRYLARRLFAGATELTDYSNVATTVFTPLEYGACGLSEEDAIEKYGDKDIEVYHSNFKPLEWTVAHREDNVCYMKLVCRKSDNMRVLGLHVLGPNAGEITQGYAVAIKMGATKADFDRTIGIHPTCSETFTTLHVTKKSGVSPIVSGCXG
Description: TGR was incubated at room temperature (up to 6 h) and at 4 °C for 6 to 24 h with 50 µM inhibitor and 100 µM NADPH for the indicated times. Then DTNB (3 mM) and NADPH (100 µM) were added, and the reaction was monitored at A412 for 5 min. The assay was done in triplicate.

S. japonicum adult worms = assay: Schistosomicidal activity ex vivo, S. japonicum adult worms; type: cell-based; settings: 48 h exposure
Description: Three-week old, female Swiss-Webster mice obtained from the Charles River were housed in the Comparative Research Center of Rush University Medical Center. Mice were infected by percutaneous tail exposure to about 200 S. mansoni or 50 S. japonicum cercaria for adult worms and about 1000 cercaria for juvenile S. mansoni worms through natural transdermal penetration of the cercariae for 1 h[81].
DMSO formulated compounds were diluted with phenol red free M199 medium or RPMI medium for NTS or juvenile and adult worms, respectively, at <1% DMSO final concentrations. NTS, juvenile and adult worms from overnight cultures were tested against compounds in triplicate. Controls were treated with DMSO alone or 5 µM AF as a positive control in appropriate medium. […] Schistosome viabilities in the presence of the compounds were assessed using this formula: % Viability = Averages of Test / Averages of DMSO Control x 100.

TGR [2] = molecular target: T1, TGR; assay: Thermal shift assay (TSA); type: binding; set-up: key to Avg. Tm / Tm, replicate 1-3: Tm in °C, from a 25–95 °C melt curve
Description: Samples were prepared by using a final concentration of 0.25 mg/ml TGR diluted in TGR reaction buffer to the desired volume. To evaluate reduced TGR, 500 µM NADPH was added. […] After the preincubation period, 20 µL samples were pipetted into a BioRad un-skirted PCR 96 well plate and sealed with MicroAmp^TM Optical Adhesive film. The plate was then centrifuged for 5 min at 1000 × g. TSA was carried out using a BioRad CFX Connect qPCR instrument with a melt curve setting of 25 − 95 °C, in increments of 0.5 °C/10 seconds. The SYBR green channel was used to detect fluorescence as the wavelength of flavin fluorescence overlaps with that of SYBR green. BioRad CFX Maestro 5.2 was used to analyze TSA data.

[3] = Cytotoxicity in mammalian cells (Cell Titer Glo); type: cell-based; settings: African green monkey, Vero cells, relative to untreated control
Description: Following overnight incubation, formulated DMSO-compound stock solutions were diluted with DMEM at <1% DMSO final concentrations. […] Vero cells treated similarly with different concentrations of PZQ, MZM and AF (Cayman Chemicals) were used as positive controls.

## Cc1oc(C2CCCCC2)nc1CN[C@@H]1C[C@@H]2C[C@H]([C@H]1C)C2(C)C [Compound 4]
TGR [1]; 0.5 hr
  rate, 0.5 hr: 0.06468 and 0.06599 and 0.06659
TGR [1]; 0.5 hr, average
  avg % inhib, 0.5 hr: 18.4758%
TGR [1]; 0.5 hr, replicates
  % inhib, 0.5 hr: 18.6722% and 19.1992% and 17.556%
TGR [1]; 1 hr
  rate, 1 hr: 0.05061 and 0.05195 and 0.05284
TGR [1]; 1 hr, average
  avg % inhib, 1 hr: 30.1534%
TGR [1]; 1 hr, replicates
  % inhib, 1 hr: 31.2738% and 29.387% and 29.7994%
TGR [1]; 2 hr
  rate, 2 hr: 0.03578 and 0.03672 and 0.03844
TGR [1]; 2 hr, average
  avg % inhib, 2 hr: 45.3087%
TGR [1]; 2 hr, replicates
  % inhib, 2 hr: 46.082% and 46.1584% and 43.6859%
TGR [1]; 3 hr
  rate, 3 hr: 0.02569 and 0.02601 and 0.02662
TGR [1]; 3 hr, average
  avg % inhib, 3 hr: 55.4006%
TGR [1]; 3 hr, replicates
  % inhib, 3 hr: 55.9121% and 55.5156% and 54.774%
TGR [1]; 6 hr
  rate, 6 hr: 0.01404 and 0.01371
TGR [1]; 6 hr, average
  avg % inhib, 6 hr: 70.958%
TGR [1]; 6 hr, replicates
  % inhib, 6 hr: 70.2542% and 71.6618%
TGR [1]; 24 hr
  rate, 24 hr: 0.004212 and 0.004652 and 0.005413
TGR [1]; 24 hr, average
  avg % inhib, 24 hr: 87.319%
TGR [1]; 24 hr, replicates
  % inhib, 24 hr: 88.741% and 87.5248% and 85.6913%
S. japonicum adult worms
  LD50 ex vivo S. japonicum adult: 27.1 ± 1.75 µM

## C[C@@H]1[C@H]2C[C@@H](C[C@H]1NCc1nc3ccccc3n1C)C2(C)C [Compound 12]
TGR [2]; 500 µM NADPH
  increase in the Tm of TGR in the presence of NADPH: no effect
TGR [2]; TGR + 100 µM compound
  Avg. Tm: 73.5
TGR [2]; TGR + 100 µM compound + 500 µM NADPH
  Avg. Tm, + 500 µM NADPH: 64
TGR [2]; TGR + 100 µM compound + 500 µM NADPH, single replicates, in °C (unit assumed)
  Tm, replicate 1-3, + 500 µM NADPH: 64
TGR [2]; TGR + 100 µM compound, single replicates, in °C (unit assumed)
  Tm, replicate 1-3: 73.5
TGR [2]; without NADPH
  effect on Tm of oxidized TGR: no effect

## C[C@@H]1N=C(c2ccccc2Cl)c2cc([N+](=O)[O-])ccc2NC1=O [MZM, meclonazepam, reference compound]
[3]
  viability at 24 h, 5 µM: 99.8%
  viability at 24 h, 10 µM: 98.1%
  viability at 24 h, 25 µM: 92.9%
  viability at 24 h, 35 µM: 90.8%
  viability at 24 h, 50 µM: 87%

## O=C(C1CCCCC1)N1CC(=O)N2CCc3ccccc3C2C1 (centres unmarked) [PZQ, praziquantel]
[3]
  viability at 24 h, 5 µM: 97.1%
  viability at 24 h, 10 µM: 98.3%
  viability at 24 h, 25 µM: 92.3%
  viability at 24 h, 35 µM: 89.1%
  viability at 24 h, 50 µM: 88.9%
